The values below come from patent publication US9868715B2 (THE BOARD OF REGENTS OF THE UNIVERSITY OF TEXAS SYSTEMS, priority 2014, dated 2018).

The structures appear in SMILES notation.

For assay [1], the system named is transformed PSC (human pancreatic stellate cells). Nature of the assay: PSC apoptosis, Cell Death Detection ELISA PLUS assay. The assay is classed as cell-based. The settings on record: 14 h; for EC50: mean±SEM of at least three experiments. As to the method: These two representative analogues were also investigated to determine whether the growth inhibition induced by compounds 23 and 24 in PSC was attributed to apoptosis. Apoptosis was determined using the Cell Death Detection ELISA^PLUS assay. This sandwich-enzyme-immunoassay involved antibodies binding to cytoplasmic nucleosomes, which were specific to the process of apoptosis rather than necrosis. […] Next, the dose-response curve was generated (FIG. 3B). The EC50 represented the concentration at which the compound yielded half of the maximal amount of cell death. […] The capacity of the compounds to induce cell death in activated PSC would most likely translate into reduced fibrosis in CP. […] Under an IRB-approved tissue protocol, discarded human resected pancreatic tissue (500 mm^3) was attained fresh from the operating room at the University of Texas Medical Branch. The tissue was minced and plated on a collagen-coated flask (15 μg/mL, Invitrogen) with DMEM (VWR; Radnor, Pa.) supplemented with penicillin 200 U/mL, streptomycin 200 μg/mL, amphotericin B 0.25 μg/mL and gentimicin 50 μg/mL (Invitrogen, Carlsbad Calif.), 10% fetal bovine serum (Lonza, Walkersville, Md.), 1% insulin-transferrin, selenium-ethanolamine (Gibco, Grand Island, N.Y.), and 1% non-essential amino acids (Sigma-Aldrich, St. Louis, Mo.). The human PSC were isolated by the outgrowth method.^41-43 The purity of PSC culture was confirmed by immunohistochemical staining for vimentin, α-smooth muscle actin, glial fibrillar acidic protein, or Oil red O staining. Primary PSC were transformed and immortalized for use in experiments using lentiviral vectors containing SV40 Large T antigen and human telomerase (plasmid #12245 and 12246; Addgene, Cambridge, Mass.). Cultures were maintained in DMEM with 10% FBS, at 37° C. in a humidified […] atmosphere. Cell death assay. Transformed PSC (8×10^3) were plated in 96-well plates in triplicate. […] The Cell Death Detection ELISA^PLUS assay (Roche Applied Science, Indianapolis, Ind.) was used and protocol followed (Version 11.0). Absorbance was measured at 405 nm, using the EL×800 Automated Microplate Reader (Bio-TEK Instruments, Inc., Winooski, Vt.). Statistical analysis. Dose-response curves were generated by plotting fluorescence or absorbance versus log (compound concentration). A best-fit curve was created using nonlinear regression, and the IC50 or EC50 determined from the graph (GraphPad Prism 5; GraphPad Software Inc., La Jolla, Calif.). To analyze continuos variables, unpaired student t-tests and one-way ANOVA with Tukey-Kramer multiple comparisons post-test (GraphPad Prism 5). Significance was set at p<0.05.
(In general: In an ELISA, binding on a coated surface is turned into a signal by an enzyme label.)

Assay [2] shares this test system. Nature of the assay: PSC proliferation, AlamarBlue Cell Viability Assay. In kind it is cell-based. The settings on record: for inhibition at 5 µM / inhibition at 10 µM / inhibition at 20 µM: Homo sapiens, mean of at least three independent experiments, NE = No effect, read-out: Inhibitory Effect (%) on PSC proliferation; for IC50: human PSC, 24 h, mean±SEM of at least three experiments, read-out: IC50, inhibition of PSC proliferation; for IC50 / Antiproliferative effect on PSC, result in words: AlamarBlue; for Antiproliferative effect on PSC, result in words: transformed PSC. The protocol: The calculated lipophilicity (cLogP) and topological polar surface area (tPSA) values of synthesized analogues are listed in Table 1. […] AlamarBlue is a non-toxic reagent that is converted to a highly fluorescent end product by viable cells.
Under an IRB-approved tissue protocol, discarded human resected pancreatic tissue (500 mm^3) was attained fresh from the operating room at the University of Texas Medical Branch. The tissue was minced and plated on a collagen-coated flask (15 μg/mL, Invitrogen) with DMEM (VWR; Radnor, Pa.) supplemented with penicillin 200 U/mL, streptomycin 200 μg/mL, amphotericin B 0.25 μg/mL and gentimicin 50 μg/mL (Invitrogen, Carlsbad Calif.), 10% fetal bovine serum (Lonza, Walkersville, Md.), 1% insulin-transferrin, selenium-ethanolamine (Gibco, Grand Island, N.Y.), and 1% non-essential amino acids (Sigma-Aldrich, St. Louis, Mo.). The human PSC were isolated by the outgrowth method.^41-43 The purity of PSC culture was confirmed by immunohistochemical staining for vimentin, α-smooth muscle actin, glial fibrillar acidic protein, or Oil red O staining. Primary PSC were transformed and immortalized for use in experiments using lentiviral vectors containing SV40 Large T antigen and human telomerase (plasmid #12245 and 12246; Addgene, Cambridge, Mass.). Cultures were maintained in DMEM with 10% FBS, at 37° C. in a humidified 95% O2/5% CO2 atmosphere.
Cell proliferation assay. Transformed PSC (3×10^3) were plated in 96-well plates, in sextuplicate. […] AlamarBlue reagent (10% sample volume, DAL1025) was added to each well per Invitrogen's protocol. Fluorescence was recorded using excitation/emission wavelengths of 544/590 nm and the SpectraMax M2 Microplate Reader (Molecular Devices, Sunnyvale Calif.).
Statistical analysis. Dose-response curves were generated by plotting fluorescence or absorbance versus log (compound concentration). A best-fit curve was created using nonlinear regression, and the IC50 or EC50 determined from the graph (GraphPad Prism 5; GraphPad Software Inc., La Jolla, Calif.). To analyze continuos variables, unpaired student t-tests and one-way ANOVA with Tukey-Kramer multiple comparisons post-test (GraphPad Prism 5). Significance was set at p<0.05.
In general terms: Alamar Blue is a resazurin reagent that responds to reducing activity.

The EC50 is the concentration that produces a half-maximal response. As for `O=c1cc(-c2ccc(O)cc2)oc2cc(O)cc(O)c12` [Apigenin, 4′,5,7-trihydroxyflavone, reference compound], the concentration giving a half-maximal response (EC50) in assay [1] was 24.5 ± 2.5 µM. In assay [2], the inhibition at 5 µM came out at 11%, the inhibition at 10 µM stood at 34%, the inhibition at 20 µM came to 64% and the IC50 was 18.6 ± 1.6 µM.
As for `COc1cc(OC)c2c(=O)cc(-c3ccc(OCC4CO4)cc3)oc2c1` (stereo not drawn) [Compound 23, 5,7-Dimethoxy-2-(4-oxiranylmethoxyphenyl)-chromen-4-one], in assay [1], the EC50 worked out at 9.6 ± 1.8 µM. Further, in assay [2], the inhibition at 5 µM amounted to 69%, the inhibition at 10 µM amounted to 89%, the inhibition at 20 µM is 93% and the IC50 was found to be 2.5 ± 0.6 µM. In addition, the “Antiproliferative effect on PSC, result in words” value in assay [2] was “highly potent inhibitor suppressing PSC proliferation”.
`COc1cc(OC)c2c(=O)cc(-c3ccc(OCC(O)CN4CCCCC4)cc3)oc2c1` (stereo not drawn) [Compound 24, 2-(4-(2-Hydroxy-3-piperidin-1-yl-propoxy)phenyl)-5,7-dimethoxy-chromen-4-one]: in assay [1], the “Concentrations inducing stellate cell toxicity” value is “greater than 25 μM” and the EC50 came out at 35.2 ± 5.5 µM. Further, in assay [2], the inhibition at 5 µM turned out to be 34%, the inhibition at 10 µM came out at 65%, the inhibition at 20 µM amounted to 95% and the IC50 came to 8 ± 1.8 µM. In addition, the “Antiproliferative effect on PSC, result in words” value in assay [2] was “potent antiproliferative effects”.
